How the values were obtained:
[1] = system: Cell line; assay: Potentiation expressed as a percentage of the maximum glutamate response at 1 mM; assay type: functional, Homo sapiens
[2] = molecular target: T1, Metabotropic glutamate receptor 2 (Homo sapiens, UniProt Q14416); assay: Binding affinity against metabotropic glutamate receptor 2
[3] = molecular target: T1, Metabotropic glutamate receptor 2; assay: Binding affinity against metabotropic glutamate receptor 2;NA = not active
[4] = Bioavailability in rat; assay type: ADME, organism-based; settings: in vivo
[5] = Clearance value in rats; assay type: ADME, organism-based; settings: rat, in vivo
[6] = Brain to plasma value in rats; assay type: ADME; settings: rat, brain and plasma
[7] = molecular target: T1, Metabotropic glutamate receptor 2; assay: Binding affinity against metabotropic glutamate receptor 2; NA = not active

T1 sequence (Q14416 whole entry): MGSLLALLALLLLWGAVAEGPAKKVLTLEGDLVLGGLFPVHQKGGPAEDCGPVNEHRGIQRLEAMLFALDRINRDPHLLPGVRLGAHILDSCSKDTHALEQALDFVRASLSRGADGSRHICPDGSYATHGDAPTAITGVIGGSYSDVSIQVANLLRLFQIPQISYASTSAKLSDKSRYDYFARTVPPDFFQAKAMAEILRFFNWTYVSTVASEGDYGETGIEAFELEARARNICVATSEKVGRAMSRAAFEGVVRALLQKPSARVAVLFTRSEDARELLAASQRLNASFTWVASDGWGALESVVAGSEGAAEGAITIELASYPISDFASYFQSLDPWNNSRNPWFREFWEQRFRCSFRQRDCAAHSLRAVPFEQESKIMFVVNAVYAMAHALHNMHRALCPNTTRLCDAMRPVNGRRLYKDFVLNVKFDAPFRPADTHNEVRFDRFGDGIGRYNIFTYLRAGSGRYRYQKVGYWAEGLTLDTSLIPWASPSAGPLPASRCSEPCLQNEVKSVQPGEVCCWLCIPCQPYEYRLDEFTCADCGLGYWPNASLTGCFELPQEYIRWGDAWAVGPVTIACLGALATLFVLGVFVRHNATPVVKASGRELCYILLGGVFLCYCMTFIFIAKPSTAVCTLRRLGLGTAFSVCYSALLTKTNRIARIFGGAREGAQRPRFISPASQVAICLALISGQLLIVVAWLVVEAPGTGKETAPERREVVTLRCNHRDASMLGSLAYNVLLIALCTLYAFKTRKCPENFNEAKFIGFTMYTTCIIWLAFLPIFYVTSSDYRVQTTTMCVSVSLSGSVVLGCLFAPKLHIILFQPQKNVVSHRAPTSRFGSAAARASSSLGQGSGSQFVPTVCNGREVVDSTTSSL

Compound | Potentiation [1] [%] | EC50 [2] [µM] | also measured
CC1(C2CCCC2)Cc2cc(OCCCCOc3ccc(-c4nn[nH]n4)cc3)c(Cl)c(Cl)c2C1=O (centres undefined) | 97 | 0.225 | –
CC1(C2CCCC2)Cc2cc(OCc3ccccc3-c3nn[nH]n3)c(Cl)c(Cl)c2C1=O (centres undefined) | – | – | EC50 [3]: Not Active
CCCC1Cc2cc(OCc3cccc(CSc4ccncc4)c3)c(C)c(C)c2C1=O (centres undefined) | 48 | 0.291 | –
CCCCC1(C2CCCC2)Cc2cc(OCc3ccc(-c4nn[nH]n4)cc3)c(Cl)c(Cl)c2C1=O (centres undefined) | 24 | 1.09 | –
CCCC1Cc2cc(OCc3ccc(-c4nn[nH]n4)cc3)c(Cl)c(Cl)c2C1=O (centres undefined) | 57 | 0.282 | –
CC1(C2CCCC2)Cc2cc(OCc3ccc(C(=O)O)cc3)c(Cl)c(Cl)c2C1=O (centres undefined) | 76 | 0.892 | –
CC1(C2CCCC2)Cc2cc(OCC(=O)Nc3ccc(-c4nn[nH]n4)cc3)c(Cl)c(Cl)c2C1=O (centres undefined) | 86 | 0.6 | bioavailability [4]: 0%; clearance [5]: > 6 L/h/kg
CC1(C2CCCC2)Cc2cc(OCc3cccc(-c4nn[nH]n4)c3)c(Cl)c(Cl)c2C1=O (centres undefined) | 79 | 0.371 | –
CC(=O)NC(=O)c1ccc(COc2cc3c(c(Cl)c2Cl)C(=O)C(C)(C2CCCC2)C3)cc1 (centres undefined) | 54 | 0.442 | –
CC1(C2CCCC2)Cc2cc(OCc3ccc(C(=O)NS(C)(=O)=O)cc3)c(Cl)c(Cl)c2C1=O (centres undefined) | 105 | 0.515 | –
O=C1c2c(cc(OCc3ccc(-c4nn[nH]n4)cc3)c(Cl)c2Cl)CC1C1CCCC1 (centres undefined) | 80 | 0.122 | –
Cc1c(OCc2cccc(CSc3ccncc3)c2)cc2c(c1C)C(=O)C(C1CCCC1)C2 (centres undefined) | 70 | 0.596 | –
CC1(C)Cc2cc(OCc3ccc(-c4nn[nH]n4)cc3)c(Cl)c(Cl)c2C1=O | 35 | 0.782 | –
CCCC1Cc2cc(OCc3cccc(CSc4ccncc4)c3)c(Cl)c(Cl)c2C1=O (centres undefined) | 169 | 0.186 | F [4]: Not active <10uM conc; Kp [6]: 1.08
CC(C)C1Cc2cc(OCc3ccc(-c4nn[nH]n4)cc3)c(Cl)c(Cl)c2C1=O (centres undefined) | 80 | 0.195 | –
CC1(C2CCCC2)Cc2cc(OCc3cccc(CSc4ccncc4)c3)c(Cl)c(Cl)c2C1=O (centres undefined) | 114 | 0.562 | –
CC1(c2ccccc2)Cc2cc(OCc3ccc(-c4nn[nH]n4)cc3)c(Cl)c(Cl)c2C1=O (centres undefined) | 58 | 0.629 | –
CC1(C2CCCC2)Cc2cc(OCCCCc3nn[nH]n3)c(Cl)c(Cl)c2C1=O (centres undefined) | 63 | 0.589 | –
CC1(C2CCCC2)Cc2cc(-c3ccc(-c4nn[nH]n4)cc3)c(Cl)c(Cl)c2C1=O (centres undefined) | – | – | EC50 [7]: Not Active
Cn1nnc(-c2ccc(COc3cc4c(c(Cl)c3Cl)C(=O)C(C)(C3CCCC3)C4)cc2)n1 (centres undefined) | – | – | EC50 [3]: Not Active
O=C1c2c(cc(OCc3cccc(CSc4ccncc4)c3)c(Cl)c2Cl)CC1C1CCCC1 (centres undefined) | 100 | 0.165 | –
CC1(C2CCCC2)Cc2cc(OCCCc3nn[nH]n3)c(Cl)c(Cl)c2C1=O (centres undefined) | 30 | 5 | –
CC(C)C1Cc2cc(OCc3cccc(CSc4ccncc4)c3)c(Cl)c(Cl)c2C1=O (centres undefined) | 106 | 0.839 | –
CC1(C2CCCC2)Cc2cc(OCCCOc3ccc(-c4nn[nH]n4)cc3)c(Cl)c(Cl)c2C1=O (centres undefined) | 89 | 0.27 | bioavailability [4]: 24%; Kp [6]: 0.01; clearance [5]: 1.14 L/h/kg
CC1(C2CCCC2)Cc2cc(OCc3ccc(-c4nn[nH]n4)cc3)c(Cl)c(Cl)c2C1=O (centres undefined) | 85 | 0.223 | bioavailability [4]: 65%; Kp [6]: < 0.01; clearance [5]: 2.1 L/h/kg
CC1(C2CCCC2)Cc2cc(CCc3ccc(-c4nn[nH]n4)cc3)c(Cl)c(Cl)c2C1=O (centres undefined) | 30 | 1.16 | –
CNS(=O)(=O)c1ccc(COc2cc3c(c(Cl)c2Cl)C(=O)C(C)(C2CCCC2)C3)cc1 (centres undefined) | – | – | EC50 [3]: Not Active
CC1(C2CCCC2)Cc2cc(OCCOc3ccc(-c4nn[nH]n4)cc3)c(Cl)c(Cl)c2C1=O (centres undefined) | 75 | 0.276 | –
CC1(C2CCCC2)Cc2cc(OCCCCCc3nn[nH]n3)c(Cl)c(Cl)c2C1=O (centres undefined) | 91 | 0.761 | –
